Assay results as given in patent US20240342292A1, “Compounds for the Degradation of EGFR Kinase” (BeiGene Switzerland GmbH, priority 2021, published 2024).

Columns and labels:
[1] = test system: Del19/T790M/C797S EGFR; experiment: EGFR degradation HTRF assay in H1975-clone #28 (DTC) cells; format: cell-based; settings: H1975 # 28 DTC (Del19/T790M/C797S), 16h treatment; for DC50: HTRF; for Dmax (%): maximum percentage of degradation
Outline: (§1)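 H1975 clones stably overexpressing mutant EGFR by lentivirus, with endogenous EGFR knocked out by sgRNA and homozygosity confirmed by sequencing, were treated 16 h at 37 °C with compounds in 0.2% DMSO medium, 8 doses from 10 uM in 5-fold dilution. Lysates were read by HTRF (665/620 nm); DC50 came from a four-parameter fit.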

[2] = molecular target: T1, L858R/T790M/C797S EGFR (Homo sapiens, UniProt P00533, C797S/L858R/T790M); experiment: EGFR degradation HTRF assay in H1975-clone #25 (LTC) cells; format: cell-based; settings: 16h treatment; for DC50: H1975 # 25-LTC (L858R/T790M/C797S), HTRF; for Dmax: NCI-H1975, H1975 # 25-LTC (L858R/T790M/C797S), maximum percentage of degradation
T1 construct: expressed in transfected cells; host or cells: H1975 clone #25 (lentiviral over-expression, endogenous EGFR knocked out by sgRNA)
T1 sequence (P00533 25-1210 T790M/C797S/L858R): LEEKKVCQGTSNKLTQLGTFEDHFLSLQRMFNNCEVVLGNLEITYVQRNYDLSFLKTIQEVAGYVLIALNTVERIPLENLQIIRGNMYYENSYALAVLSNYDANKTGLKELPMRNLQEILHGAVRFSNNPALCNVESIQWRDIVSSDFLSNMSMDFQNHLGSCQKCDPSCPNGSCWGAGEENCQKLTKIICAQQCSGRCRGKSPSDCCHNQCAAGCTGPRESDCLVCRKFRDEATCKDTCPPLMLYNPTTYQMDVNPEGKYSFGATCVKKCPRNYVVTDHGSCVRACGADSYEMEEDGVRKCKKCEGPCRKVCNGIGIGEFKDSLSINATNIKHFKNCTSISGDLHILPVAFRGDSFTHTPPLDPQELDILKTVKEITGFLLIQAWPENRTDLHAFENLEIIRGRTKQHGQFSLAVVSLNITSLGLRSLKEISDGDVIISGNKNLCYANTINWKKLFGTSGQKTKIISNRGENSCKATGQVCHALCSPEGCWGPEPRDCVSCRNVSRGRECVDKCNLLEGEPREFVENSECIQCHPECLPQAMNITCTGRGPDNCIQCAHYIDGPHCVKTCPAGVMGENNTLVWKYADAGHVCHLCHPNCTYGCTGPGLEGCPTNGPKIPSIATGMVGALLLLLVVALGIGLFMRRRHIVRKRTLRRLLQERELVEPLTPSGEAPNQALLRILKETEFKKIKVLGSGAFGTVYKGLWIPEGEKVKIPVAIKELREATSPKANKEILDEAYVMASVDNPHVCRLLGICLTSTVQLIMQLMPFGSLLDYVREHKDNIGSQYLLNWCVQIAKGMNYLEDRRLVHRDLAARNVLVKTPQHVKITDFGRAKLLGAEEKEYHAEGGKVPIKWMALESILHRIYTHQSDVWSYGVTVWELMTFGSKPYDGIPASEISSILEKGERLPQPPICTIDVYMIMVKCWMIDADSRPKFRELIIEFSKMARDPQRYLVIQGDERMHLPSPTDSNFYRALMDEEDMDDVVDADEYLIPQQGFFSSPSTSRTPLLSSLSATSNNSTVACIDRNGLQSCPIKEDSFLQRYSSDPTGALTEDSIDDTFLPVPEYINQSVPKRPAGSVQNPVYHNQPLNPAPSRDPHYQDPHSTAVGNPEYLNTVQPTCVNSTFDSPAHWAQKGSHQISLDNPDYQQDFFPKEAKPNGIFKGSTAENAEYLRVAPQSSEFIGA
Outline: as §1

Row | SMILES | DC50 [1] | Dmax (%) [1] | DC50 [2] | Dmax [2]
1 | Cc1cc2cc(n1)-c1cnn(C)c1OCC[C@@H]1C[C@H]1CN1/C(=N/C2=O)Nc2ccc(N3CCN(C4CCN(c5cc(F)c([C@H]6CCC(=O)NC6=O)c(F)c5)CC4)CC3)cc21 [Example 441, (R)-3-(4-(4-(4-((7′R,7^2S,E)-1^1,2^6-dimethyl-3-oxo-5^2,5^3-dihydro-1^1H,5^1H-10-oxa-4-aza-5(2,1)-benzo[d]imidazola-2(2,4)-pyridina-1(4,5)-pyrazola-7(1,2)-cyclopropanacyclodecaphane-5^6-yl)piperazin-1-yl)piperidin-1-yl)-2,6-difluorophenyl)piperidine-2,6-dione] | 0.643 nM | 89.27% | 0.857 nM | 89.2%
2 | Cc1cc2cc(n1)-c1cnn(C)c1OCCC[C@@H](C)CN1/C(=N/C2=O)Nc2ccc(CN3CCN(C(=O)[C@@H]4CCN(c5cc(F)c([C@H]6CCC(=O)NC6=O)c(F)c5)C4(C)C)C[C@@H]3C)cc21 [Example 190, (R)-3-(4-((R)-2,2-dimethyl-3-((S)-3-methyl-4-(((R,E)-1^1,2^6,7-trimethyl-3-oxo-5^2,5^3-dihydro-1^1H,5^1H -11-oxa-4-aza-5(2,1)-benzo[d]imidazola-2(2,4)-pyridina-(4,5)-pyrazolacycloundecaphane-5^6-yl)methyl)piperazine-1-carbonyl)pyrrolidin-1-yl)-2,6-difluorophenyl)piperidine-2,6-dione] | 0.742 nM | 64.16% | 1.17 nM | 82.2%
3 | Cc1cc2cc(n1)-c1cnn(C)c1OCCC[C@@H](C)CN1/C(=N/C2=O)Nc2ccc(C(=O)N[C@@H]3C[C@H]4CC[C@@H](C3)N4CCc3cc(F)c([C@H]4CCC(=O)NC4=O)c(F)c3)cc21 [Example 264, (R,E)-N—((1R,3S,5S)-8-(4-((R)-2,6-dioxopiperidin-3-yl)-3,5-difluorophenethyl)-8-azabicyclo[3.2.1]octan-3-yl)-1^1,2^6,7-trimethyl-3-oxo-5^2,5^3-dihydro-1^1H,5^1H-11-oxa-4-aza-5(2,1)-benzo[d]imidazola-2(2,4)-pyridina-1(4,5)-pyrazolacycloundecaphane-5^6-carboxamide] | 0.677 nM | 68.8% | 0.546 nM | 89.8%
4 | Cc1cc2cc(n1)-c1cnn(C)c1OCCC[C@@H](C)CN1/C(=N/C2=O)Nc2ccc(C(=O)N(C)C3CN(C4CCN(c5cc(F)c([C@H]6CCC(=O)NC6=O)c(F)c5)CC4)C3)cc21 [Example 309, (R,E)-N-(1-(1-(4-((R)-2,6-dioxopiperidin-3-yl)-3,5-difluorophenyl)piperidin-4-yl)azetidin-3-yl)-N,1′,2^6,7-tetramethyl-3-oxo-5^2,5^3-dihydro-1^1H,5^1H-11-oxa-4-aza-5(2,1)-benzo[d]imidazola-2(2,4)-pyridina-1(4,5)-pyrazolacycloundecaphane-5^6-carboxamide] | 0.684 nM | 65.2% | 0.459 nM | 83%
5 | Cc1cc2cc(n1)-c1cnn(C)c1OCCC1CC1CN1/C(=N/C2=O)Nc2ccc(C(=O)N(C)C3CCN(CCc4cc(F)c([C@H]5CCC(=O)NC5=O)c(F)c4)CC3)cc21 (stereo partly drawn) [Example 234, (E)-N-(1-(4-((R)-2,6-dioxopiperidin-3-yl)-3,5-difluorophenethyl)piperidin-4-yl)-N,1^1,2^6-trimethyl-3-oxo-5^2,5^3-dihydro-1^1H,5^1H-10-oxa-4-aza-5(2,1)-benzo[d]imidazola-2(2,4)-pyridina-1(4,5)-pyrazola-7(1,2)-cyclopropanacyclodecaphane-5^6-carboxamide] | 0.637 nM | 85.75% | 1.09 nM | 90.1%
6 | Cc1cc2cc(n1)-c1cnn(C)c1OCCC[C@@H](C)CN1/C(=N/C2=O)Nc2ccc(C(=O)N(C)[C@@H](C)C3CCN(CCc4cc(F)c(C5CCC(=O)NC5=O)c(F)c4)CC3)cc21 (stereo partly drawn) [Example 272, (R,E)-N—((S)-1-(1-(4-((R)-2,6-dioxopiperidin-3-yl)-3,5-difluorophenethyl)piperidin-4-yl)ethyl)-N,1,2^6,7-tetramethyl-3-oxo-5^2,5^3-dihydro-1^1H,5^1H-11-oxa-4-aza-5(2,1)-benzo[d]imidazola-2(2,4)-pyridina-1(4,5)-pyrazolacycloundecaphane-5^6-carboxamide] | 1.52 nM | 76.03% | 1.36 nM | 87.2%
7 | Cc1cc2cc(n1)-c1cnn(C)c1OCCC[C@@H](C)CN1/C(=N/C2=O)Nc2ccc(N3C[C@@H](C)N(C4CCN(c5cc(F)c([C@H]6CCC(=O)NC6=O)c(F)c5)CC4)C[C@H]3C)cc21 [Example 398, (R)-3-(4-(4-((2R,5R)-2,5-dimethyl-4-((R,E)-1^1,2^6,7-trimethyl-3-oxo-5^2,53-dihydro-1^1H,5^1H-11-oxa-4-aza-5(2,1)-benzo[d]imidazola-2(2,4)-pyridina-1(4,5)-pyrazolacycloundecaphane-5^6-yl)piperazin-1-yl)piperidin-1-yl)-2,6-difluorophenyl)piperidine-2,6-dione] | 4.5 nM | 72.53% | 4.7 nM | 90.3%
8 | Cc1cc2cc(n1)-c1cnn(C)c1OCCC[C@@H](C)CN1/C(=N/C2=O)Nc2ccc(N3CCN(CC4CCN(c5cc(F)c([C@H]6CCC(=O)NC6=O)c(F)c5)CC4)CC3)cc21 [Example 322, (R)-3-(2,6-difluoro-4-(4-((4-((R,E)-1^1,2^6,7-trimethyl-3-oxo-5^2,5^3-dihydro-1^1H,5^1H-11-oxa-4-aza-5(2, 1)-benzo[d]imidazola-2(2,4)-pyridina-1(4,5)-pyrazolacycloundecaphane-5^6-yl)piperazin-1-yl)methyl)piperidin-1-yl)phenyl)piperidine-2,6-dione] | 0.934 nM | 74.99% | 1.21 nM | 86.8%
9 | Cc1cc2cc(n1)-c1cnn(C)c1OCCC[C@@H](C)CN1/C(=N/C2=O)Nc2ccc(C(=O)N(C)[C@H]3CCN(CCc4cc(F)c([C@H]5CCC(=O)NC5=O)c(F)c4)[C@@H](C)C3)cc21 [Example 267, (R,E)-N—((2S,4S)-1-(4-((R)-2,6-dioxopiperidin-3-yl)-3,5-difluorophenethyl)-2-methylpiperidin-4-yl)-N,1^1,2^6,7-tetramethyl-3-oxo-5^2,5^3-dihydro-1^1H,5^1H-11-oxa-4-aza-5(2,1)-benzo[d]imidazola-2(2,4)-pyridina-1(4,5)-pyrazolacycloundecaphane-5^6-carboxamide] | 0.624 nM | 76.64% | 0.602 nM | 91.7%
10 | Cc1cc2cc(n1)-c1cnn(C)c1OCCC[C@@H](C)CN1/C(=N/C2=O)Nc2ccc(CN3CCN(C(=O)[C@H]4CN(c5cc(F)c([C@H]6CCC(=O)NC6=O)c(F)c5)CC4(C)C)CC3)cc21 [Example 77, (R)-3-(4-((R)-3,3-dimethyl-4-(4-(((R,E)-1^1,2^6,7-trimethyl-3-oxo-5^2,5^3-dihydro-1^1H,5^1H-11-oxa-4-aza-5(2,1)-benzo[d]imidazola-2(2,4)-pyridina-1(4,5)-pyrazolacycloundecaphane-5-yl)methyl)piperazine-1-carbonyl)pyrrolidin-1-yl)-2,6-difluorophenyl)piperidine-2,6-dione] | 2.2 nM | 78.3% | 1.7 nM | 83.4%
11 | Cc1cc2cc(n1)-c1cnn(C)c1OCCC[C@@H](C)CN1/C(=N/C2=O)Nc2ccc(N3CCN([C@H]4C[C@@H](Nc5cc(F)c([C@H]6CCC(=O)NC6=O)c(F)c5)C4)CC3)cc21 [Example 445, (R)-3-(2,6-difluoro-4-(((1 S,3S)-3-(4-((R,E)-1^1,2^6,7-trimethyl-3-oxo-5^2,5^3-dihydro-1^1H,5^1H-11-oxa-4-aza-5(2,1)-benzo[d]imidazola-2(2,4)-pyridina-1(4,5)-pyrazolacycloundecaphane-5^6-yl)piperazin-1-yl)cyclobutyl)amino)phenyl)piperidine-2,6-dione] | 2.14 nM | 74.88% | 0.559 nM | 84.5%
12 | Cc1cc2cc(n1)-c1cnn(C)c1OCCC[C@@H](C)CN1/C(=N/C2=O)Nc2ccc(N3CCN(CC4CN(c5cc(F)c([C@H]6CCC(=O)NC6=O)c(F)c5)C4)[C@@H](C#N)C3)cc21 [Example 423, (R)-1-((1-(4-((R)-2,6-dioxopiperidin-3-yl)-3,5-difluorophenyl)azetidin-3-yl)methyl)-4-((R,E)-1^1,2^6,7-trimethyl-3-oxo-5^2,5^3-dihydro-1^1H,5^1H-1l-oxa-4-aza-5(2,1)-benzo[d]imidazola-2(2,4)-pyridina-1(4,5)-pyrazolacycloundecaphane-5^6-yl)piperazine-2-carbonitrile] | 0.655 nM | 67.20% | 1.41 nM | 78.8%
13 | Cc1cc2cc(n1)-c1cnn(C)c1OCCC[C@@H](C)CN1/C(=N/C2=O)Nc2ccc(N3CCN(C4CCN(c5cc(F)c([C@H]6CCC(=O)NC6=O)c(F)c5)CC4)[C@@H](CO)C3)cc21 [Example 421, (R)-3-(2,6-difluoro-4-(4-((R)-2-(hydroxymethyl)-4-((R,E)-1^1,2^6,7-trimethyl-3-oxo-5^2,5^3-dihydro-1^1H,5^1H-11-oxa-4-aza-5(2,1)-benzo[d]imidazola-2(2,4)-pyridina-1(4,5)-pyrazolacycloundecaphane-5^6-yl)piperazin-1-yl)piperidin-1-yl)phenyl)piperidine-2,6-dione] | 0.639 nM | 84.08% | 0.604 nM | 87.5%
